Reference: patent publication US9856232B1, “Dihydropyrimidinone derivatives” (KING SAUD UNIVERSITY, priority 2017, dated 2018)
Marks after values point to notes of the source that are not given here.

Tests used:
Type in all cases: in vivo, Albino Wistar rats
[1] = system: Gastric lesions induced by 80% ethanol; test: Gastric lesions induced by ethanol (ulcer index by severity scores); settings: Rattus norvegicus, po, vs 80% EtOH group, read-out: Gastric lesions induced by 80% ethanol, % change
[2] = system: gastric wall mucus in stomach tissue, change induced by 80% ethanol; test: Determination of gastric wall mucus (GWM); settings: i.p, 80% ethanol-treated rats, mean ± SE
Method: (§1) Albino Wistar rats of either sex, approximately the same age, weighing 150 to 200 g and fed on a diet of standard chow were used in this study. They were randomly divided into experimental groups of six rats each. Compounds (N-1 to N-18) 12.5, 25, and 50 mg/kg were given orally in the anti-ulcer studies and intraperitoneally for gastric secretion evaluation. The rats were sacrificed, and the stomachs removed and opened along the greater curvature, After washing with saline, the gastric lesions were quantified by a person unaware of the treatments. The animal study protocol was approved by the Research and Ethics Committee of the Experimental Animal Care Society, College of Pharmacy, King Saud University, Riyadh, Saudi Arabia.
Determination of gastric wall mucus (GWM): Gastric wall mucus was determined according to the modified procedure. The glandular segment of the stomach was separated from the rumen of the stomach, weighed, and transferred immediately to 10 mL of 0.1% w/v Alcian blue solution (in […] sucrose solution buffered with […] sodium acetate at pH 5. Tissue was stained for 2 hours in Alcian blue, and excess dye was removed by two successive rinses with 10 mL of […] sucrose, firstly after 15 minutes and then after 45 minutes. Dye complexed with the gastric wall mucus was extracted with 10 ml of […] magnesium chloride which was intermittently shaken for 1 minute at 30 minute intervals for 2 hours. Four milliliters of blue extract were then vigorously shaken with an equal volume of diethyl ether. The resulting emulsion was centrifuged at 4000 r/min for 10 minutes and the absorbance of the aqueous layer was recorded at 580 nm. The quantity of Alcian blue extracted per gram of wet glandular tissue was then calculated. Table 6 provides the effect of compounds on the change in gastric wall mucus in stomach tissue induced by 80% ethanol (mean±SE).

[3] = system: Hypothermic restraint stress-induced intraluminal bleeding and gastric lesion; test: Hypothermic restraint stress-induced ulcers; parameters: Gastric Lesion Ulcer Index: scale not given here; settings: hypothermic restraint 3 h, mean ± SE
[4] = system: gastric mucosal non-protein sulfhydryls, induced by 80% ethanol; test: Estimation of non-protein sulfhydryls (NP-SH); settings: stomach tissue, 80% ethanol-treated rats, mean ± SE
Method: as §1
Estimation of non-protein sulfhydryls (NP_SH): Gastric mucosal non-protein sulfhydryls were measured according to the method. The glandular part of the stomach was homogenized in ice-cold 0.02 mmol/L ethylenediaminetetraacetic acid (EDTA). Aliquots of 5 mL of the homogenates were mixed in 15 mL test tubes with 4 mL of distilled water and 1 mL of 50% trichloroacetic acid (TCA). The tubes were shaken intermittently for 10 minutes and centrifuged at 3000 r/min. Two milliliters of supernatant were mixed with 4 mL of 0.4 mol/L Tris buffer at pH 8.9. Then 0.1 ML of 5, 5′-dithio-bis (2-nitrobenzoic acid) (DTNB) was added and the sample was shaken. The absorbance was measured within 5 minutes of DTNB addition at 412 nm against a reagent blank.

[5] = system: Indomethacin-induced gastric mucosal lesions; test: Gastric lesions induced by Indomethacin; parameters: scale not given here; settings: i.p, 30 min before Indomethacin 30 mg/kg, mean ± SE
Source text: as §1, with “Compounds (N-1 to N-18) 12.5, 25, and 50 mg/kg were given orally in the anti-ulcer studies and intraperitoneally for gastric secretion evaluation.” left out
Gastric lesions induced by Indomethacin: Indomethacin was suspended in 1.0% carboxymethylcellulose (CMC) in water (6 mg/mL) and administered orally to the 36 hour fasted rats at a dose of 30 mg/kg body weight. Control rats were treated similarly with an equivalent amount of vehicle. […] The animals were sacrificed 6 hours after treatment. The stomachs were excised, rinsed with normal saline and examined for ulceration. Table 3 provides the effect of compounds on Indomethacin-induced gastric mucosal lesions (mean±SE).

[6] = system: gastric mucosa of rats treated with 80% Ethanol; test: Histopathological evaluation of gastric tissue; settings: 50 mg/kg; FIG. 15B-15F
Method: Histopathological evaluation: Gastric tissue samples were fixed in neutral buffered formalin for 24 hours. Sections of gastric tissue were histopathologically examined to study the ulcerogenic and/or anti-ulcerogenic activity of compounds (N-3, N-8, N-11, and N-15). The tissues were fixed in 10% buffered formalin and processed using a VIP tissue processor. The processed tissues were embedded in paraffin blocks and sections about […] thick were cut using an American optical rotary microtome. These sections were stained with haematoxylin and eosin using routine procedures. The slides were examined microscopically for pathomorphological changes such as congestion, hemorrhage, edema, and erosions using an arbitrary scale for severity assessment of these changes (FIGS. 3-14).

[7] = system: Gastric lesions induced by necrotizing agents (80% ethanol, 0.2 mol/L NaOH or 25% NaCl); test: Gastric lesions induced by necrotizing agents (cytoprotection); settings: i.p, 30 min before necrotizing agent, mean ± SE

O=C1NC=C(C(=O)c2ccc(N3CCCCC3)cc2)C(c2ccc([N+](=O)[O-])cc2)N1 (stereo not shown) [Compound N-3, 4-(4-Nitrophenyl)-5-[4-(piperidin-1-yl)benzoyl]-3,4-dihyropyrimidin-2(1H)-one]
inhibition in vivo at 12.5 mg/kg ([1]; compound 12.5 mg/kg): 33.3% | inhibition in vivo at 25 mg/kg ([1]; compound 25 mg/kg): 53.3% | inhibition in vivo at 50 mg/kg ([1]; compound 50 mg/kg): 60% | Gastric Wall Mucus ([2]; 12.5 mg/kg): 242.08 ± 4.03*^b μg/g | Gastric Wall Mucus ([2]; 25 mg/kg): 241.66 ± 6.91**^b μg/g | Gastric Wall Mucus ([2]; 50 mg/kg): 256.18 ± 8.39***^b μg/g | Gastric Lesion Ulcer Index ([3]; 12.5 mg/kg): 24.16 ± 1.70 | Intraluminal Bleeding Score ([3]; 12.5 mg/kg): 2.83 ± 0.30 | Gastric Lesion Ulcer Index ([3]; 25 mg/kg): 17.66 ± 0.76 | Intraluminal Bleeding Score ([3]; 25 mg/kg): 1.50 ± 0.22 | Gastric Lesion Ulcer Index ([3]; 50 mg/kg): 13.83 ± 0.60 | Intraluminal Bleeding Score ([3]; 50 mg/kg): 1.16 ± 0.30 | NP-SH ([4]; dose 12.5): 3.15 ± 0.20^b nmol/g | NP-SH ([4]; dose 25): 4.23 ± 0.23**^b nmol/g | NP-SH ([4]; dose 50): 4.56 ± 0.17***^b nmol/g | Ulcer Index, indomethacin-induced gastric mucosal lesions ([5]; 12.5 mg/kg): 29.83 ± 1.66 | Ulcer Index, indomethacin-induced gastric mucosal lesions ([5]; 25 mg/kg): 20.50 ± 1.52 | Ulcer Index, indomethacin-induced gastric mucosal lesions ([5]; 50 mg/kg): 12.66 ± 1.28 | Gastric section, effect on gastric mucosa (histology) [6]: intact mucosa with mild ulceration | Ulcer Index, 0.2 mol/L NaOH ([7]; 12.5 mg/kg): 4.50 ± 0.22.*** | Ulcer Index, 25% NaCl ([7]; 12.5 mg/kg): 5.16 ± 0.47 | Ulcer Index, 80% EtOH ([7]; 12.5 mg/kg): 6.83 ± 0.30 | Ulcer Index, 0.2 mol/L NaOH ([7]; 25 mg/kg): 2.66 ± 0.33 | Ulcer Index, 25% NaCl ([7]; 25 mg/kg): 2.83 ± 0.30 | Ulcer Index, 80% EtOH ([7]; 25 mg/kg): 4.16 ± 0.30 | Ulcer Index, 0.2 mol/L NaOH ([7]; 50 mg/kg): 1.83 ± 0.40 | Ulcer Index, 25% NaCl ([7]; 50 mg/kg): 1.66 ± 0.33 | Ulcer Index, 80% EtOH ([7]; 50 mg/kg): 3.00 ± 0.36
